In article PMC10552892, “Ebselen oxide and derivatives are new allosteric HER2 inhibitors for HER2‐positive cancers” (Molecular Oncology, 2023):

Legend:
NCI-N87 [1] = experiment: Incucyte proliferation, single agents and combinations, NCI-N87; type: cell-based; conditions: Homo sapiens, NCI-N87, 96 h; read-out: Reduction/inhibition of cell proliferation
Method: (§1) (A–C) Proliferation curves of HER2‐positive (SKBR3, A; BT474, B; NCI‐N87, C) cancer cell lines treated or not with ebselen oxide (10 μM), lapatinib (10–1000 nM), or combination of these agents, as indicated. Proliferation was assessed overtime by Incucyte during 4 days. Data are mean ± SD (n = 8–12) of a representative experiment out of 4 (A), 3 (B), or 2 (C) independent experiments. […] Proliferation was assessed by Incucyte during 4 days. […] Scale bars are […].

[2] = test system: HBMECs transfected with pRK5 empty vector; experiment: Proliferation of HBMECs transfected with pRK5 empty vector (Incucyte); conditions: 5 μM, Incucyte 5 days
Method: 25.10^3 cells/96‐well transfected HBMECs or 9.10^3 cancer cells were seeded and monitored with an Incucyte S3 imaging system (Sartorius, Goettingen, Germany) using 10× objective every 2 h during 5 days. Confluency analyses were performed using the dedicated Incucyte analysis system.
Proliferation was assessed by Incucyte during 5 days.
Representative quantification of the proliferation (B) is shown where data are mean ± sem (n=8-12).
vehicle, 5-10 µM Ebselen oxide or 5 µM AG1478.

BT474 = experiment: Incucyte proliferation, single agents and combinations, BT474; type: cell-based; conditions: Homo sapiens, BT-474, 96 h; read-out: Reduction/inhibition of cell proliferation
Method: as §1

[3] = target: T1, HER2 in heterodimers with HER3 (Homo sapiens, UniProt P04626); experiment: Ligand-dependent HER2 activation in HBMECs upon HRG stimulation (western blot); type: cell-based; conditions: 10 μM, 100 ng/ml Heregulin-1β 5 min
T1 construct: in noncancer cells expressing normal levels of HER2; endogenous in cells; host or cells: HBMEC

HER2 (pY1248) in NCI-N87 = target: T2, HER2 (pY1248) in NCI-N87 (Homo sapiens, UniProt P04626); experiment: HER2 activation in NCI-N87 gastric cancer cells, western blot; type: cell-based
T2 construct: host or cells: NCI-N87
Method: (A-C) HER2-positive […] (SKBR3, A; NCI-N87, B; BT474, C) treated or not with Ebselen
indicated, were analyzed by western blot to evaluate HER2 activation status using antibodies directed
Proliferation was assessed by Incucyte during 4 days.

[4] = target: T3, HER2 (pY1248) in MDA-MB-231 (Homo sapiens, UniProt P04626); experiment: HER2 activation in MDA-MB-231 cells, western/dot blot; type: cell-based; conditions: MDA-MB-231, low HER2 expression
T3 construct: host or cells: MDA-MB-231

NCI-N87 [5] = experiment: Proliferation of NCI-N87 cells; type: cell-based, human; conditions: ebselen oxide 7–10 μM, AG1478 5 μM
Method: Fig. 3 Ebselen oxide inhibits HER2 activation and HER2‐dependent proliferation in gastric and ovarian HER2^+ cancer cells. (A) HER2‐positive NCI‐87 gastric cancer cells were treated with ebselen oxide (0–20 μM) for 24 h, lysed, and analyzed by western blot using anti‐pY1248‐HER2, HER2, and β‐tubulin antibodies. A representative western blot is shown out of 4 independent experiments. (B) HER2‐positive SKOV3 ovarian cancer cells were treated with ebselen oxide (0–10 μM) for 24 h, lysed, and analyzed by western blot using anti‐pY1248‐HER2, HER2, and ezrin antibodies. A western blot is shown (n = 1). (C, D) Proliferation curves of NCI‐N87 gastric (C) or SKOV3 ovarian (D) cancer cells treated with vehicle or 7–10 μM ebselen oxide measured by MTT assay. Data are mean ± SEM (n = 9–12) of three independent experiments.
Supplementary figure 4: NCI-N87 and SKOV3 cancer cell lines are addicted to the HER2 pathway
(A) NCI-N87 cells were treated (+) or not (-) with a non-specific HER2 inhibitor AG1478 (5 µM). Whole cell lysates were analyzed by western blot with pY1248 HER2, HER2 and pERK antibodies.
(B) SKOV3 cells were treated (+) or not (-) with a non-specific HER2 inhibitor AG1478 (5 µM). Whole cell lysates were analyzed by western blot with pY1248 HER2, HER2, pERK or beta-tubulin antibodies.
(C) Proliferation curves of NCI-N87 treated or not with AG1478 (5 µM). Data are mean ± sem (n=4-6). 2- […]

T2 sequence (P04626 23-1255): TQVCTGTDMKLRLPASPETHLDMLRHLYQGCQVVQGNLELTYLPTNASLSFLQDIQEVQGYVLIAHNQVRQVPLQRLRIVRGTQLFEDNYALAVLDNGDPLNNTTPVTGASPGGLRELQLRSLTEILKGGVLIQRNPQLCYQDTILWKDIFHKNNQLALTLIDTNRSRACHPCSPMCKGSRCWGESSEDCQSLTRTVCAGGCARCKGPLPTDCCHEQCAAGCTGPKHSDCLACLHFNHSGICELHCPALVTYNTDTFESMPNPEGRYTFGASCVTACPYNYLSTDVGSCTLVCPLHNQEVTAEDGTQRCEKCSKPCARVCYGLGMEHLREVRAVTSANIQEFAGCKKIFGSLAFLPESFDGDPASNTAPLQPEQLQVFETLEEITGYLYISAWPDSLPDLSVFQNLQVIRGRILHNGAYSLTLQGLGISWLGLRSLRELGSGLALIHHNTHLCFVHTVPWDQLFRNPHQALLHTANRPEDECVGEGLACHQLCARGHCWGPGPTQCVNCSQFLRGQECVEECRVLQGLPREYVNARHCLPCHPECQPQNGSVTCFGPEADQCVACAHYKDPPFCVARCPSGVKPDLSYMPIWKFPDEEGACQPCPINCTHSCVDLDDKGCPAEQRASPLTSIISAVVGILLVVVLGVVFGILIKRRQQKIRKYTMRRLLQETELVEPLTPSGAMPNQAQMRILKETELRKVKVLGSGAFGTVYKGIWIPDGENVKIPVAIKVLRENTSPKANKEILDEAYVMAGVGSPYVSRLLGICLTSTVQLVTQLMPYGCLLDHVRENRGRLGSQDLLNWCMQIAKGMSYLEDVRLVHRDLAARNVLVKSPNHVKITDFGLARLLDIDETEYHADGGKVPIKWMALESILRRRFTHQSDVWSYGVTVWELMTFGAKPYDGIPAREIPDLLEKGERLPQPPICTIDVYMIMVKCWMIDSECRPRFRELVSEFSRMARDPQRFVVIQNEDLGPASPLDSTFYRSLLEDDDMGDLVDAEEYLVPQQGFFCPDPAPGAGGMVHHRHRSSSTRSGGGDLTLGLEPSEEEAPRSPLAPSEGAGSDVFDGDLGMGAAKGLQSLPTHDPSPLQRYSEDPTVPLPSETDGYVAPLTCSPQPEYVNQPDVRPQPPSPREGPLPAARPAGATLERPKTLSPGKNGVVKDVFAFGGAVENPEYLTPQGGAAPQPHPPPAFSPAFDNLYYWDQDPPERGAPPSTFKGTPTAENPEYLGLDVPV
T3 sequence (P04626 23-1255): as above
T1 sequence (P04626 23-1255, one chain of several): as the sequence (P04626 23-1255) above

What does the source list for `O=C1c2ccccc2[Se](=O)N1c1ccccc1` (centres unmarked) [Ebselen oxide, ebselen oxide]?
inhibition at 10 µM (NCI-N87 [1]): 45%; Effect on proliferation of cells transfected with pRK5 empty vector [2]: did not affect; inhibition at 10 µM (BT474): 30%; Physiological activation of HER2 in heterodimers and downstream AKT and ERK activation upon HRG [3]: did not alter; Effect on HER2 activation (HER2 (pY1248) in NCI-N87; ebselen oxide 0–20 μM 24 h, AG1478 5 μM): strongly blocked; Effect on HER2 activation, single agents and combination (HER2 (pY1248) in NCI-N87; ebselen oxide 10 μM, lapatinib 10 nM): partially decreased; Effect on HER2 activation [4]: no effect; Effect on proliferation (NCI-N87 [5]): reduced proliferation
